“And” between values parts separate entries of the source, which are not always exact repeats. Equal entries are not always repeated. ± gives the uncertainty stated by the source.
Experiment: xn = mol fraction of the nth substance listed

CCCC[n+]1ccn(C)c1.N#C[N-]C#N + OCC(O)CO + O
viscosity [mPa·s], 101 kPa
Settings	x2 = 0.00317, x3 = 0.9588	x2 = 0.005245, x3 = 0.8687	x2 = 0.006424, x3 = 0.955	x2 = 0.009764, x3 = 0.9511	x2 = 0.01072, x3 = 0.8605	x2 = 0.0132, x3 = 0.9472	x2 = 0.01645, x3 = 0.8519	x2 = 0.02243, x3 = 0.8428
313.15 K	1.38 ± 0.42	1.68 ± 0.5	1.46 ± 0.44	1.53 ± 0.46	1.72 ± 0.52	1.59 ± 0.48	1.78 ± 0.53	1.81 ± 0.54
333.15 K	1.25 ± 0.38	1.33 ± 0.4	1.29 ± 0.39	1.34 ± 0.4	1.37 ± 0.41	1.39 ± 0.42	1.41 ± 0.42	1.43 ± 0.43
353.15 K	1.03 ± 0.31	1.15 ± 0.34	1.03 ± 0.31	1.07 ± 0.32	1.17 ± 0.35	1.08 ± 0.32	1.22 ± 0.37	1.34 ± 0.4

CCCCCCCCCCCC[P+](CC)(CC)CC.N#Cc1ccc[n-]1 + OCCN(CCO)CCO
100 kPa
Settings	electrical conductivity [S/m]	viscosity [mPa·s]
293.15 K, x1 = 0.01	0.0023 ± 0.0002	–
293.15 K, x1 = 0.035	0.0045 ± 0.0005	990 ± 150
293.15 K, x1 = 0.207	–	880 ± 130
293.15 K, x1 = 0.473	–	850 ± 130
293.15 K, x1 = 0.583	0.0111 ± 0.0012	–
298.15 K, x1 = 0.051	–	652 ± 97
298.15 K, x1 = 0.207	–	585 ± 87
298.15 K, x1 = 0.809	–	506 ± 75
313.15 K, x1 = 0.051	–	189 ± 27
313.15 K, x1 = 0.207	–	186 ± 27

C[n+]1ccn(CCCCCn2cc[n+](C)c2)c1.O=S(=O)([N-]S(=O)(=O)C(F)(F)F)C(F)(F)F.O=S(=O)([N-]S(=O)(=O)C(F)(F)F)C(F)(F)F + OCCOCCOCCOCCO
viscosity, 101 kPa
Settings	293.15 K	303.15 K	313.15 K	323.15 K	333.15 K
x1 = 0.3283	178.4 ± 8 mPa·s	93.1 ± 2.7 mPa·s	56.5 ± 1.3 mPa·s	36.2 ± 0.9 mPa·s	22.4 ± 0.5 mPa·s
x1 = 0.55	448 ± 33 mPa·s	233 ± 12 mPa·s	128 ± 4.7 mPa·s	81.7 ± 2.2 mPa·s	54.9 ± 1.2 mPa·s
x1 = 0.7097	627 ± 54 mPa·s	316 ± 20 mPa·s and 318 ± 20 mPa·s	177.9 ± 8 mPa·s and 180.1 ± 8.2 mPa·s	107.7 ± 3.5 mPa·s	67.9 ± 1.6 mPa·s
x1 = 1	1125 ± 120 mPa·s	555 ± 45 mPa·s	313 ± 20 mPa·s	192.3 ± 9 mPa·s	123.2 ± 4.4 mPa·s

CC(=O)[O-].CC[n+]1ccn(C)c1 + OC[C@@H](O)[C@@H](O)[C@H](O)[C@@H](O)CO
Settings	viscosity [mPa·s]
313.15 K, 100 kPa, x2 = 0	53.4 ± 2.5

CCCC[N+](C)(CCCC)CCCC.[Cl-] + OC[C@H]1O[C@@H](O[C@H]2[C@H](O)[C@@H](O)[C@@H](O)O[C@@H]2CO)[C@H](O)[C@@H](O)[C@H]1O + O
viscosity [mPa·s], 100 kPa
Settings	293.15 K	298.15 K	303.15 K	308.15 K	313.15 K
x2 = 0, x1 = 0.0003603	1.01 ± 0.02	0.904 ± 0.019	0.809 ± 0.019	0.726 ± 0.019	0.661 ± 0.019
x2 = 0, x1 = 0.0007023	1.024 ± 0.02	0.914 ± 0.019	0.815 ± 0.019	0.735 ± 0.019	0.671 ± 0.019
x2 = 0, x1 = 0.001062	1.035 ± 0.02	0.93 ± 0.019	0.829 ± 0.019	0.744 ± 0.019	0.686 ± 0.019
x2 = 0, x1 = 0.001422	1.045 ± 0.02	0.941 ± 0.02	0.839 ± 0.019	0.756 ± 0.019	0.694 ± 0.019
